From patent US20080287515A1, “Topical compositions containing metronidazole” (priority 2007, published 2008)
Values belong to the molecule of their own block, whether it stands above or below them.

Legend:
[1] = Physical stability test of aqueous metronidazole compositions (crystal formation or precipitation); format: physicochemical; details: for Concentration required to obtain a stable aqueous solution of 1.0% metronidazole: as the only solubility enhancing agent
Method: The solubility enhancing effect of the combination of urea and hydroxyalkyl urea in increasing the solubility of metronidazole in the aqueous compositions is evaluated by physical stability of the prepared compositions.
Therefore, the formulations are subject to a physical stability test. The protocol for the stability test is as follows: metronidazole and the solubility enhancing agents are combined with water either at room temperature or elevated temperature while stirring until dissolved. The solutions are permitted to cool to room temperature. Customary auxiliaries and additives may be added to the aqueous solutions containing solubilized metronidazole and solubility enhancing agents. The solutions may be gelled by using the suitable gelling agents. The compositions both in gel or solution form are then packaged in clear glass vials and sealed. The vials are kept at room temperature for 24 hours and monitored for crystal formation or precipitation. After 24 hours, the vials are placed in a refrigerator maintained at a temperature of about 4° C. for 7 days. After 7 days, the vials are removed from the refrigerator. Evidence of crystal formation or precipitation in the compositions is examined.
(§1) Each formulation was prepared by combining urea and metronidazole in water (q.s 100%). The mixture was kept at a temperature of about 45° C. while stirring until dissolved. The solutions were permitted to cool to room temperature, packaged and sealed in glass vials. The stability tests described in Example 1 were performed and the test results were recorded.
as §1, with “combining N-2-hydroxyethyl” for “combining”, “45°C.” for “45° C.”
as §1, with “N-2-hydroxyethyl urea, urea,” for “urea”, “kept either at room temperature or” for “kept”, “recorded. […]” for “recorded.”

[2] = at 25 °C; cited from earlier work

- Results from stability test ([1]; 1.0% N-2-hydroxyethyl urea, 7.0% urea, 1.0% metronidazole in water, 7 days at about 4 °C): Crystals
- Results from stability test ([1]; 1.0% N-2-hydroxyethyl urea, 8.0% urea, 1.0% metronidazole in water, 7 days at about 4 °C): Clear
- Results from stability test ([1]; 1.0% N-2-hydroxyethyl urea, 9.0% urea, 1.0% metronidazole in water, 7 days at about 4 °C): Clear
- Results from stability test ([1]; 5.0% N-2-hydroxyethyl urea, 2.0% urea, 1.0% metronidazole in water, 7 days at about 4 °C): Clear
- Results from stability test ([1]; 5.0% N-2-hydroxyethyl urea, 2.0% urea, 1.0% metronidazole in water, 7 days at about 4 °C, listed as metronidazole): stable
- Results from stability test ([1]; 5.0% N-2-hydroxyethyl urea, 3.0% urea, 1.0% metronidazole in water, 7 days at about 4 °C): Clear
- Results from stability test ([1]; 5.0% N-2-hydroxyethyl urea, 4.0% urea, 1.0% metronidazole in water, 7 days at about 4 °C): Clear
- Results from stability test ([1]; 5.0% N-2-hydroxyethyl urea, 5.0% urea, 1.0% metronidazole in water, 7 days at about 4 °C): Clear
- Results from stability test ([1]; 7% urea, 1.0% metronidazole in water, 24 h room temperature then 7 days at about 4 °C): Crystals formed
- Results from stability test ([1]; 8.0% N-2-hydroxyethyl urea, 1.0% urea, 1.0% metronidazole in water, 7 days at about 4 °C): Crystals
- Results from stability test ([1]; 8.0% N-2-hydroxyethyl urea, 8.0% urea, 1.2% metronidazole in water, 7 days at about 4 °C): Clear
- Results from stability test ([1]; 8% urea, 1.0% metronidazole in water, 24 h room temperature then 7 days at about 4 °C): Crystals formed
- Results from stability test ([1]; 9.0% N-2-hydroxyethyl urea, 1.0% urea, 1.0% metronidazole in water, 7 days at about 4 °C): Crystals
- Results from stability test ([1]; 9% urea, 1.0% metronidazole in water, 24 h room temperature then 7 days at about 4 °C): Crystals formed
- Results from stability test ([1]; 10.0% N-2-hydroxyethyl urea, 1.0% urea, 1.0% metronidazole in water, 7 days at about 4 °C): Clear
- Results from stability test ([1]; 10% urea, 1.0% metronidazole in water, 24 h room temperature then 7 days at about 4 °C): Clear
- Results from stability test ([1]; 13% N-2-hydroxyethyl urea, 1.0% metronidazole in water, 24 h room temperature then 7 days at about 4 °C): Crystals formed
- Results from stability test ([1]; 14% N-2-hydroxyethyl urea, 1.0% metronidazole in water, 24 h room temperature then 7 days at about 4 °C): Crystals formed
- Results from stability test ([1]; 15% N-2-hydroxyethyl urea, 1.0% metronidazole in water, 24 h room temperature then 7 days at about 4 °C): Crystals formed
- Results from stability test ([1]; 16% N-2-hydroxyethyl urea, 1.0% metronidazole in water, 24 h room temperature then 7 days at about 4 °C): Clear
SMILES: Cc1ncc([N+](=O)[O-])n1CCO [Metronidazole, 1-(2-hydroxyethyl)-2-methyl-5-nitroimidazole]

- Concentration required to obtain a stable aqueous solution of 1.0% metronidazole [1]: about 16%
- Concentration of N-2-hydroxyethyl urea needed to obtain a stable aqueous solution of 1.0% metronidazole ([1]; concentration of urea is 1.0%): ≥ 9.0%
SMILES: NC(=O)NCCO [N-2-hydroxyethyl urea]

- Concentration required to obtain a stable aqueous solution of 1.0% metronidazole [1]: about 10%
- Concentration of urea needed to obtain a stable aqueous solution of 1.0% metronidazole ([1]; concentration of N-2-hydroxyethyl urea is 1.0%): ≥ 8.0%
- N-2-hydroxyethyl urea functionally equivalent to 1% urea in inducing the solubility enhancing effect ([1]; from Examples 2 and 3): about 1.6%
SMILES: NC(N)=O [urea]
- Water solubility limit [2]: about 50 % by weight
